Results: ChEMBL document CHEMBL1149221, “Terephthalamide derivatives as mimetics of the helical region of Bak peptide target Bcl-xL protein” (Bioorg Med Chem Lett, 2004)
pKi: −log10 of the molar value.

Biological target: Bcl-2-like protein 1 (Homo sapiens, UniProt Q07817)
Assay: Binding affinity for Bcl-xL was assessed by a fluorescence polarization assay using a fluorescently labeled 16-mer Bak-peptide

Chain of Bcl-2-like protein 1 (Q07817 whole entry): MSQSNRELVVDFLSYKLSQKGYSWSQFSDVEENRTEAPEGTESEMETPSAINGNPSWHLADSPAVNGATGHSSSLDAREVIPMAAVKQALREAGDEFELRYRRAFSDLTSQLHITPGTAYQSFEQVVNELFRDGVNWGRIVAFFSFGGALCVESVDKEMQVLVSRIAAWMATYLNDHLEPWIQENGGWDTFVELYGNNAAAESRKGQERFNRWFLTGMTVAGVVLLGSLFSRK

SMILES	pKi
CC(C)C[C@H](NC(=O)c1ccc(C(=O)N(C(C)C)C(C)C)cc1Oc1ccccc1)C(=O)O	5.99
COC(=O)[C@@H](NC(=O)c1ccc(C(=O)N(C(C)C)C(C)C)cc1OC(C)C)C(C)C	5.23
COC(=O)[C@@H](CC(C)C)NC(=O)c1ccc(C(=O)N(C(C)C)C(C)C)cc1OC	5.75
COC(=O)CNC(=O)c1ccc(C(=O)N(C)C)cc1	< 4.52
CC(C)C[C@H](NC(=O)c1ccc(C(=O)N(CC(C)C)C(C(=O)O)C(C)C)cc1OC(C)C)C(=O)O (stereo partly specified)	< 4.52
CC(C)C[C@H](NC(=O)c1ccc(C(=O)N(C(C)C)C(C)C)cc1Oc1cccc2ccccc12)C(=O)O	5.12
COC(=O)[C@@H](NC(=O)c1ccc(C(=O)N(C(C)C)C(C)C)cc1OC(C)C)c1ccccc1	4.96
CC(C)CC(NC(=O)c1ccc(C(=O)N[C@@H](CC(C)C)C(=O)O)c(Oc2ccccc2)c1)C(=O)O (stereo partly specified)	< 4.52
CC(C)C[C@H](NC(=O)c1ccc(C(=O)N(CC(C)C)C(C)C(=O)O)cc1OC(C)C)C(=O)O (stereo partly specified)	< 4.52
COC(=O)[C@H](C)NC(=O)c1ccc(C(=O)N(C(C)C)C(C)C)cc1OC(C)C	4.96
CC(C)CC(NC(=O)c1ccc(C(=O)N[C@@H](CC(C)C)C(=O)O)c(Oc2cccc3ccccc23)c1)C(=O)O (stereo partly specified)	< 4.52
